Test results as given in PubChem BioAssay AID1117348 (Cheminformatics & Chemogenomics Research Group (CCRG), …, 2015).
The source made the active and inactive calls. No rule for the calls is given here.

tested on: HeLa cell cycle, increased S-phase population; assay: HeLa S-phase population increase, dose response, cell-based, IC50 (AID 1117348)

Question: How did the IC50 turn out when `COC(=O)[C@H]1[C@H]2C[C@@H]3c4[nH]c5cc(OC)ccc5c4CCN3C[C@H]2C[C@@H](OC(=O)/C=C/c2ccc(O)c(OC)c2)[C@@H]1OC` was run?
Answer: The IC50 was > 10 µM (inactive).

Question: With `O=c1[nH]c(=O)n([C@H]2C[C@H](O)[C@@H](CO)O2)cc1I` as the compound, how does the IC50 read?
Answer: Its IC50 is > 10 µM (inactive).

Question: Which IC50 does the source give for `O=C(CCl)c1ccc(Cl)cc1Cl` here?
Answer: Its IC50 is > 10 µM (inactive).

Question: For `C1CN(P2(N3CC3)=NP(N3CC3)(N3CC3)=NP(N3CC3)(N3CC3)=N2)CCO1` (stereo unspecified), which IC50 is on record?
Answer: Its IC50 is > 10 µM (inactive).

Question: For `CO[C@@H]1[C@@H](OC)[C@H](C)[C@@](O)(CC(=O)O)O[C@H]1[C@H](C)[C@H]1O[C@@]2(CC[C@@](C)([C@H]3CC[C@@](C)([C@@H]4O[C@@H]([C@H]5O[C@](C)(O)[C@H](C)C[C@@H]5C)C[C@@H]4OC4C[C@H](OC)[C@@H](OC)[C@H](C)O4)O3)O2)C[C@H](O)[C@H]1C` (stereo partly specified), which IC50 is on record?
Answer: Its IC50 is > 10 µM (inactive).

Question: How did the IC50 turn out when `COC(=O)Nc1nc2ccc(Sc3ccccc3)cc2[nH]1` was run?
Answer: The IC50 was > 10 µM (inactive).

Question: `CCOc1ccc2nc3cc(N)ccc3c(N)c2c1` was tested. Which IC50 did it give?
Answer: The IC50 was > 10 µM (inactive).

Question: Which IC50 does the source give for `CC[C@]1(O)C[C@@H]2CN(CCc3c([nH]c4ccccc34)[C@@](C(=O)OC)(c3cc4c(cc3OC)N(C)[C@H]3[C@@](O)(C(=O)OC)[C@H](OC(C)=O)[C@]5(CC)C=CCN6CC[C@]43[C@@H]65)C2)C1` here?
Answer: The IC50 was > 10 µM (inactive).

Question: With `CCN1/C(=C/C=C/c2sc3ccccc3[n+]2CC)Sc2ccccc21` as the compound, how does the IC50 read?
Answer: Its IC50 is > 10 µM (inactive).

Question: Which IC50 does the source give for `CC(=O)Nc1ccn(C2COC(COC(=O)c3ccccc3)O2)c(=O)n1` (stereo unspecified) here?
Answer: Its IC50 is 0.312 µM.

Question: For `CC[n+]1c(-c2ccccc2)c2cc(N)ccc2c2ccc(N)cc21`, which IC50 is on record?
Answer: The IC50 was > 10 µM (inactive).

Question: For `CN(Cc1cnc2nc(N)nc(N)c2n1)c1ccc(C(=O)N[C@@H](CCC(=O)O)C(=O)O)cc1`, which IC50 is on record?
Answer: The IC50 was > 10 µM (inactive).

Question: How did the IC50 turn out when `OC[C@H]1O[C@@H](n2cnc3c(=S)nc[nH]c32)[C@H](O)[C@@H]1O` was run?
Answer: Its IC50 is > 10 µM (inactive).

Question: With `COc1ccc(-c2nc3ccc(C4=NNC(=O)CC4C)cc3[nH]2)cc1` (stereo unspecified) as the compound, how does the IC50 read?
Answer: The IC50 was > 10 µM (inactive).

Question: Which IC50 does the source give for `C=C(C)[C@H]1Cc2c(ccc3c2O[C@@H]2COc4cc(OC)c(OC)cc4[C@@H]2C3=O)O1` here?
Answer: The IC50 was > 10 µM (inactive).

Question: With `COC(=O)c1nc(Cl)c(Cl)nc1N` as the compound, how does the IC50 read?
Answer: The IC50 was > 10 µM (inactive).

Question: How did the IC50 turn out when `COc1c(C)c2c(c(O)c1C/C=C(\C)CCC(=O)OCCN1CCOCC1)C(=O)OC2` was run?
Answer: The IC50 was 0.0147 µM.

Question: With `CCN(CCCCOC(=O)c1ccc(OC)c(OC)c1)C(C)Cc1ccc(OC)cc1` (stereo unspecified) as the compound, how does the IC50 read?
Answer: Its IC50 is > 10 µM (inactive).

Question: For `COc1ccc(-c2ccc3cc(C(=O)O)ccc3c2)cc1C12CC3CC(CC(C3)C1)C2`, which IC50 is on record?
Answer: Its IC50 is > 10 µM (inactive).

Question: For `CCCCCCCCCCCCNCCNCCNCC(=O)O`, which IC50 is on record?
Answer: Its IC50 is > 10 µM (inactive).

Question: How did the IC50 turn out when `NC(N)=NN=C(/C=C/c1ccc([N+](=O)[O-])o1)/C=C/c1ccc([N+](=O)[O-])o1` was run?
Answer: Its IC50 is > 10 µM (inactive).

Question: With `CCN(CC)CCNc1ccc(CO)c2sc3ccccc3c(=O)c12` as the compound, how does the IC50 read?
Answer: The IC50 was > 10 µM (inactive).

Question: `O=C(O)CCc1nc2ccccc2[nH]1` was tested. Which IC50 did it give?
Answer: The IC50 was > 10 µM (inactive).

Question: With `CCc1oc2ccccc2c1C(=O)c1cc(Br)c(O)c(Br)c1` as the compound, how does the IC50 read?
Answer: The IC50 was > 10 µM (inactive).

Question: For `Cc1ccc(S(=O)(=O)NC(=O)NN2CC3CCCC3C2)cc1` (stereo unspecified), which IC50 is on record?
Answer: The IC50 was > 10 µM (inactive).

Question: How did the IC50 turn out when `CN(C)CCC=C1c2ccccc2CCc2ccccc21` was run?
Answer: Its IC50 is > 10 µM (inactive).

Question: For `Oc1ccc([C@H]2CNCc3c2ccc(O)c3O)cc1O`, which IC50 is on record?
Answer: Its IC50 is > 10 µM (inactive).

Question: With `CCCCC1C(=O)N(c2ccccc2)N(c2ccc(O)cc2)C1=O` (stereo unspecified) as the compound, how does the IC50 read?
Answer: The IC50 was > 10 µM (inactive).

Question: `COc1cc2c(c(OC)c1OC)-c1ccc(OC)c(=O)cc1[C@@H](NC(C)=O)CC2` was tested. Which IC50 did it give?
Answer: The IC50 was 0.1 µM (inactive).

Question: For `CCc1nc(N)nc(N)c1-c1ccc(Cl)cc1`, which IC50 is on record?
Answer: Its IC50 is > 10 µM (inactive).

Question: How did the IC50 turn out when `CCCCCCCCCCCCCCCC[n+]1ccccc1` was run?
Answer: The IC50 was > 10 µM (inactive).

Question: With `COCc1c(C(C)C)nc(C(C)C)c(/C=C/[C@@H](O)C[C@@H](O)CC(=O)O)c1-c1ccc(F)cc1` as the compound, how does the IC50 read?
Answer: Its IC50 is > 10 µM (inactive).

Question: `CCN(CC)CCNC(=O)c1c(C)[nH]c(/C=C2\C(=O)Nc3ccc(F)cc32)c1C` was tested. Which IC50 did it give?
Answer: Its IC50 is > 10 µM (inactive).

Question: For `CCC(=O)c1ccc(O)cc1`, which IC50 is on record?
Answer: Its IC50 is > 10 µM (inactive).

Question: How did the IC50 turn out when `O=C(CCBr)N1CCN(C(=O)CCBr)CC1` was run?
Answer: Its IC50 is > 10 µM (inactive).

Question: `O=C(NOCC1CC1)c1ccc(F)c(F)c1Nc1ccc(I)cc1Cl` was tested. Which IC50 did it give?
Answer: Its IC50 is > 10 µM (inactive).
